According to patent publication US10954269B2, “Anti-inflammatory tripeptides” (Dr. August Wolff Gmbh & Co. KG Arzneimittel, priority 2013, dated 2021):
Where a SMILES comes first, the peptide text is derived from it. [ ]: non-standard residue; d: D form. Tle = CC(C)(C)[C@H](N)C(=O)O; Aib = CC(C)(N)C(=O)O

Columns and labels:
[1] = human, tissue homogenate, 1000 min, 160 μg/ml
Procedure: (§4) Human skin samples (ear skin, umbilical skin and juvenile foreskin) are combined and frozen in liquid nitrogen and homogenized. The resulting human skin homogenate is transferred portionwise (50-70 mg) to Protein LoBind Tubes (2 ml) and stored at −32° C. until use. At the beginning of the stability study the human skin homogenate is thawed. An aqueous solution of the tripeptide compound (1500 μl) with or without 0.02% sodium azide (cpeptide=160 μg/ml) is added and the mixture is incubated at 32° C. Samples were taken at 0, 30, 100, 300 and 1000 minutes. 100 μl sample are diluted with 1900 μl methanol containing an internal standard and analyzed with HPLC-MS. All analyses are performed in triplicate.

in vitro = details: human, tissue homogenate, % of the starting concentration
Procedure: as §4

primary human T cells = assay: Gene expression of pro-inflammatory cytokines (RT-qPCR) in primary human T cells; format: cell-based; details: PMA/Ionomycin, 10^−7 M, 10^−9 M and 10^−11 M
Text: (§1) Cells were activated with PMA/Ionomycin and treated with PBS, α-MSH, K(D)PT and Examples 3, 8 and 9, respectively, at a concentration of 10^−9 M. Values are normalized to β-actin and are shown relative to the gene expression in PBS-stimulated cells.
(§2) Primary T-cells were isolated from peripheral blood from healthy volunteers and from secondary lymphatic organs from naïve C57BL/6 mice, respectively. The cells were stimulated with phorbol-12-myristate-13-acetate (PMA)/Ionomycin and interferon-gamma (IFN-γ), respectively, for 48 h to activate the cells. The activated cells release pro-inflammatory cytokines. In parallel a human (HaCaT) keratinocyte cell line was activated with PMA/Ionomycin and IFN-γ, respectively, too. […] At the same time release of anti-inflammatory IL-10 was inhibited. Two days after addition of PMA/Ionomycin and IFN-γ, respectively, the induction of IL-1 secretion was determined in the supernatant for proving that the cells are activated. […] The anti-inflammatory properties of the tripeptides were determined 48 h and 72 h following stimulation. A 13-plex-system based FACS analysis was used for showing the reduced secretion of pro-inflammatory cytokines in the supernatant. Data for IL-1, IL-2, IL-6, IL-12p70 IL-17, IFN-γ and TNF-α are considered to be most relevant. Thus, analysis of the anti-inflammatory properties of the tripeptides is preferably based on the results obtained for these analytes. […] Using this method the gene expression of pro-inflammatory markers like IL-6, IL-17, IFN-γ and TNF-α was determined.
(§3) In a third experiment murine and human T cells and HaCaT cells were stimulated with PMA/Ionomycin and treated with Examples 14, 15, 16 and 17 at 10^−7 M, 10^−9 M and 10^−11 M. Cytokine concentrations (IFN-γ, IL-17 and IL-10 for T cells and IFN-γ for HaCat) were assessed in the supernatants using the Luminex technology. Expression of genes coding for Il-1β, IL-6 and TNF-α was determined. […] Moreover, concentrations of pro-inflammatory cytokines IFN-γ and IL-17 was reduced in the supernatants whereas the concentration of anti-inflammatory cytokine IL-10 was increased.

primary human T-cells = assay: Cytokine secretion on protein level in activated primary human T-cells (13-plex FACS / Luminex, supernatant); format: cell-based; details: human T cells; PMA/Ionomycin; Luminex; all tested concentrations
Outline: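 First, T-cells are isolated from healthy donors' blood. Next, they and HaCaT keratinocytes are activated for 48 h with PMA/Ionomycin or IFN-γ in the presence of tripeptides. Finally, secreted cytokines are quantified in supernatants by 13-plex FACS at 48 and 72 h.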

Balb/c mice = assay: Imiquimod-induced psoriasis in mice; format: in vivo; details: i.v.; for mRNA expression of IFN-γ and IL-36 in lesional skin: compared to vehicle control; for clinical score: day 9
Procedure: Psoriasis in Balb/c mice is induced by daily application of topical Imiquimod for 8 days. Animal are treated with the test items (topical or systemically). On day 9 the skin phenotype is characterized using a clinical score system (0=normal mouse skin; 1=mild reddening; 2=erythema; 3=erythema, swelling; 4=erythema, swelling, scaling; 5=erythema, swelling, scaling, (bloody) lesions). Skin is analyzed histologically. Lymph nodes are analyzed by flow cytometry and RT-qPCR. mRNA expression in lesional skin is analyzed by RT-qPCR. Cytokine concentrations in the serum are assessed using the Luminex technology.

primary murine T-cells = assay: Cytokine secretion on protein level in activated primary murine T-cells (13-plex FACS / Luminex, supernatant); format: cell-based, C57BL/6 mice; details: murine T cells; PMA/Ionomycin; Luminex; all tested concentrations
Outline: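 T-cells from secondary lymphatic organs of naïve C57BL/6 mice, stimulated with PMA/Ionomycin or IFN-γ; supernatant cytokines measured by 13-plex FACS 48 h and 72 h after stimulation. In another run, PMA/Ionomycin-stimulated cells received compounds at 10^−7, 10^−9 and 10^−11 M, with IFN-γ, IL-17 and IL-10 measured by Luminex.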

[2] = test system: human keratinocyte cell line (HaCaT); assay: Cytokine secretion on protein level in activated human keratinocyte cell line HaCaT (13-plex FACS / Luminex, supernatant); format: cell-based; details: HaCaT; PMA/Ionomycin; Luminex; all tested concentrations
Outline: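 Cytokine protein in supernatant is read by multiplex FACS or Luminex. Tripeptide-treated HaCaT cells or blood-derived human T-cells are stimulated beforehand with PMA/Ionomycin or IFN-γ. The most relevant analytes are IL-1, IL-2, IL-6, IL-12p70, IL-17, IFN-γ and TNF-α, sampled 48 h and 72 h after stimulation.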

primary murine T cells = assay: Gene expression of pro-inflammatory cytokines (RT-qPCR) in primary murine T cells; format: cell-based, C57BL/6 mice; details: PMA/Ionomycin, 10^−7 M, 10^−9 M and 10^−11 M
Text: as §1, §2, §3

[3] = test system: human keratinocytes (HaCaT); assay: Gene expression of pro-inflammatory cytokines (RT-qPCR) in human keratinocytes (HaCaT); format: cell-based; details: HaCaT cells; PMA/Ionomycin; 10^−7 M, 10^−9 M and 10^−11 M
Text: as §1, §2, §3

Row | % of the starting concentration [1] [%] | remaining at 1000 min, 160 μg/ml (in vitro) [%] | remaining at 5 h, 160 μg/ml (in vitro) [%] | Molecule | expression of pro-inflammatory cytokines IL-1β, IL-6 and TNF-α on mRNA level (primary human T cells) | concentration of anti-inflammatory cytokine IL-10 in the supernatants (primary human T-cells) | concentrations of pro-inflammatory cytokines IFN-γ and IL-17 in the supernatants (primary human T-cells) | concentrations of TNF-α and IL-17 in the serum (Balb/c mice) | epidermal thickness (Balb/c mice) | mRNA expression of IFN-γ and IL-36 in lesional skin (Balb/c mice) | clinical score (Balb/c mice) | concentration of anti-inflammatory cytokine IL-10 in the supernatants (primary murine T-cells) | concentrations of pro-inflammatory cytokines IFN-γ and IL-17 in the supernatants (primary murine T-cells) | concentration of pro-inflammatory cytokine IFN-γ in the supernatants [2] | expression of pro-inflammatory cytokines IL-1β, IL-6 and TNF-α on mRNA level (primary murine T cells) | expression of pro-inflammatory cytokines IL-1β, IL-6 and TNF-α on mRNA level [3]
1 | 47 | 40 |  | CC(C)(NC(=O)[C@@H]1CCCN1C(=O)[C@@H](N)CCCCN)C(=O)O [Example 8, H-(L)-Lys-(L)-Pro-Aib-OH] (H-Lys-Pro-[Aib]-OH) |  |  |  |  |  |  |  |  |  |  |  | 
2 |  |  | 58 | CC(C)(C)[C@H](NC(=O)[C@@H]1CCCN1C(=O)[C@@H](N)CCCCN)C(=O)O [Example 9, H-(L)-Lys-(L)-Pro-(L)-t-butyl-Gly-OH] (H-Lys-Pro-[Tle]-OH) |  |  |  |  |  |  |  |  |  |  |  | 
3 |  |  |  | H-[dF]-Pro-[Aib]-OH [Example 15] | reduced expression | increased | reduced | reduced | reduced | reduced | reduced | increased | reduced | reduced | reduced expression | reduced expression
4 |  |  |  | N^α,N^α-dimethyl-(L)-Nle-(L)-Pro-Aib-OH [Example 16] | reduced expression | increased | reduced | reduced | reduced | reduced | reduced | increased | reduced | reduced | reduced expression | reduced expression
5 |  |  |  | N^α,N^α-dimethyl-(L)-Phe-(t)-Pro-Aib-OH [Example 17] | reduced expression | increased | reduced | reduced | reduced | reduced | reduced | increased | reduced | reduced | reduced expression | reduced expression
6 |  |  |  | N^α-methyl-(D)-Phe-(L)-Pro-Aib-OH [Example 14] | reduced expression | increased | reduced | reduced | reduced | reduced | reduced | increased | reduced | reduced | reduced expression | reduced expression
